The assay has as its system HUVECs expressing wild-type α6β4. Put plainly: in vitro wound closure (migration) assay on laminin-5 in response to bFGF. It is filed as cell-based, Human. The conditions noted are these: plated on laminin-5, bFGF, wound closure at 8 hours (FIG. 4A). Here is the method: When indicated, migrating cells were treated with the NF-kB inhibitor BAY 11-7082 ([…]) or the MAPK inhibitor PD98059 (50 μM).
To examine the effect of α6β4 signaling on endothelial cell migration, parental HUVECS and their derivatives expressing either wild-type or mutant α6β4 were plated on laminin-5 at confluency and subjected to in vitro wound assay. Expression of wild-type α6β4 increased endothelial cell migration in response to bFGF.
To examine the role of ERK and NF-OB signaling in endothelial cell migration, HUVECs expressing wild-type α6β4 were subjected to in vitro wound closure assay in the presence of the MEK inhibitor PD98059 or the NF-kB inhibitor BAYI 1-072.
HUVECs were electroporated with equimolar amounts of plasmids encoding α6 and either β4 or β4-1355T (Dans et al., 2001), deprived of growth factors for 18 hours, and then panned on plates coated with the anti-β4 mAb 3E1. Bound cells were washed with PBS and recovered by trypsin-EDTA treatment. For in vitro wound assays, equal numbers of cells expressing wild-type β4 or mutant β4-1355T were plated on dishes coated with laminin-5, grown until confluent, and starved. […] Wound closure was monitored by digital photography. […] HUVECS Invasion was quantified 72 hours later by counting the average number of capillary-like structures per microcarrier bead.

Results on two compounds are retold here after patent US20070104716A1, “Methods for controlling pathological angiogenesis by inhibition of a6b4 integrin” (SLOAN-KETTERING INSTITUTE FOR CANCER RESEARCH, priority 2003, published 2007).

`Cc1ccc(S(=O)(=O)/C=C/C#N)cc1` [BAYI 1-072]: the “migration of α6β4-expressing HUVECs (wound closure)” value (BAY 11-7082 12.5PM) is reported as “reduced the migration of α6β4-expressing HUVECs to levels similar to those displayed by control HUVECs or HUVECs expressing mutant α6β4”.

Turning to `COc1cccc(-c2cc(=O)c3ccccc3o2)c1N` [PD98059], the “migration of α6β4-expressing HUVECs (wound closure)” value (PD98059 50 μM) is “reduced the migration of α6β4-expressing HUVECs to levels similar to those displayed by control HUVECs or HUVECs expressing mutant α6β4”.
